From patent US20150065440A1 (Progen Pharmaceuticals Limited, priority 2007, published 2015)
Where two headings read alike, the source gives them in different places.

How the values were obtained:
[1] = target: T1, VEGF (Homo sapiens, UniProt P15692); experiment: Growth factor binding assay (SPR solution affinity), VEGF; conditions: HBS-EP buffer, 25° C.
T1 sequence (P15692 207-395): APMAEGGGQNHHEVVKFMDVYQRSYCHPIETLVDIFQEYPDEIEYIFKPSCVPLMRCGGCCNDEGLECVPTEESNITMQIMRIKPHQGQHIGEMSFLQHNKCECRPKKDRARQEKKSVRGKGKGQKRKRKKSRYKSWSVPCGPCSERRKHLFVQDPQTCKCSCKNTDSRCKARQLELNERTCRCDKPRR
Method in brief: (§1)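 Kd measured by SPR solution affinity: fixed growth factor with varying ligand competing for heparin-coated sensorchip, 25 °C. Buffer HBS-EP pH 7.4 (150 mM NaCl) for FGF-1 and VEGF; FGF-2 with 0.3 M NaCl. Duplicate values averaged.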

[2] = target: FGF-1 (Homo sapiens, UniProt P05230); experiment: Growth factor binding assay (SPR solution affinity), FGF-1; conditions: SPR, HBS-EP buffer, 25° C.; read-out: Kd FGF-1
FGF-1, sequence (P05230 whole entry, species assumed): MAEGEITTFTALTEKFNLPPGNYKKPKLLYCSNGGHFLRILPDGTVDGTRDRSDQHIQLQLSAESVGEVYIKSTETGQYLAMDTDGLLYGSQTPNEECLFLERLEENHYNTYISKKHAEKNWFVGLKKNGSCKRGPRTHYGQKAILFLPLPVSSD

[3] = target: FGF-2 (Homo sapiens, UniProt P09038); experiment: Growth factor binding assay (SPR solution affinity), FGF-2
FGF-2, sequence (P09038 143-288, species assumed): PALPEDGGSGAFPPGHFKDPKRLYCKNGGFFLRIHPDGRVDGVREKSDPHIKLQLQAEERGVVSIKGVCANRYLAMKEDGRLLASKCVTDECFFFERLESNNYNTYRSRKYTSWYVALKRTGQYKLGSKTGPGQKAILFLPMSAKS
Method in brief: as §1

[4] = tested on: pooled normal human plasma; experiment: Anticoagulant activity, APTT; conditions: 0.1 mg/mL in normal pooled human plasma
Description: APTT measurements were performed on a STAGO STA-Compact Coagulation Analyser using standard protocols according to the manufacturer's instructions. Unfractionated heparin (UFH) was used as a control.

[5] = tested on: normal pooled human plasma; experiment: Anticoagulant activity, Heptest; conditions: 0.1 mg/mL in normal pooled human plasma
[6] = tested on: HSV-2; experiment: Viral plaque number-reduction assay, HSV-2; conditions: for Selective index CC50/IC50 HSV-2: GMK AH1 cells; for HSV-2 IC50: viral plaques in GMK AH1 cells (Table 9)
Method in brief: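 200 PFU virus premixed 10 min with compound (100 μg/mL screen) and kept throughout infection. HSV plaques in GMK AH1 cells, RSV (strain A-2) in HEp-2 cells. Methylcellulose overlay, 37 °C, crystal violet staining after 2 days (HSV-2) or 3 days (HSV-1); plaque numbers counted.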

[7] = tested on: RSV; experiment: Viral plaque number-reduction assay, RSV; conditions: for Selective index CC50/IC50 RSV: HEp-2 cells; for RSV IC50: viral plaques (Table 9)
Description: African green monkey kidney (GMK AH1) cells^46 were cultured in Eagle's minimum essential medium (EMEM) supplemented with 2% calf serum, 0.05% Primaton RL substance (Kraft Inc., Norwich, USA) and antibiotics. Human epidermoid carcinoma (HEp-2) cells were cultured in Dulbecco's modified EMEM (DMEM) supplemented with 10% fetal calf serum and antibiotics. […] The RSV strain A-2^50 was used. The RSV stock was prepared as described by Hallak et al.^51 and stored at −70° C. in the presence of 40% sucrose^52.
The viral infectivity (the plaque number-reduction) assay and the plaque size-reduction assay were carried out as described previously^17. […] Subsequently, the cells were washed with 2 mL of EMEM and overlaid with 1% methylcellulose solution in EMEM. The plaques were visualized by staining with crystal violet solution after 2 (HSV-2) or 3 (HSV-1) days of incubation at 37° C. […] When the compounds were screened for anti-HSV or anti-RSV activity, mixtures of 200 PFU of the virus and the test compound (100 μg/mL) in serum-free EMEM were incubated for 10 min at room temperature before addition to cells and during the entire period of viral infection of cells and the development of viral plaques. In the plaque size-reduction assay, the compounds were added to cells (in methylcellulose overlay medium) after 2 h period of virus infection of cells in the absence of the inhibitor. After 2-3 days of incubation at 37° C., the viral plaques were visualized by staining the cells with 1% solution of crystal violet. For each compound tested, the images of twenty neighboring plaques were captured using a Leica DC300 digital camera attached to a Leitz-Wetzlar Diavert microscope. The area of each plaque was determined using IM500 image software (Leica). Similar protocols were used for RSV, except that the assays were performed in HEp-2 cells and DMEM supplemented with 2% heat-inactivated fetal calf serum was used instead of EMEM.

[8] = target: T2, recombinant human heparanase (Homo sapiens, UniProt Q9Y251); experiment: Heparanase inhibition assay (fondaparinux cleavage, WST-1); conditions: read-out: Ki Heparanase; IC50 converted into Ki; fondaparinux 100 μM, pH 5.0
T2 sequence (Q9Y251 158-543 limits assumed): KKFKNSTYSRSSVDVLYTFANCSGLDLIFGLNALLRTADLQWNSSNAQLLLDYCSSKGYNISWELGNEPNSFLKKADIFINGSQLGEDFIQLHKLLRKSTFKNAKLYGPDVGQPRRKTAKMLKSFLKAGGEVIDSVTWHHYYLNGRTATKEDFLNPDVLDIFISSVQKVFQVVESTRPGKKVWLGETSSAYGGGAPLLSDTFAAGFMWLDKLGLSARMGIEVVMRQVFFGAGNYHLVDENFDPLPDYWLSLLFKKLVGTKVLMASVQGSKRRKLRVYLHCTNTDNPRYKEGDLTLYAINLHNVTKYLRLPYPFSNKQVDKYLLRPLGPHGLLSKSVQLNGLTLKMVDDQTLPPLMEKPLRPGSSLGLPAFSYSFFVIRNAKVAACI
T2 sequence (Q9Y251 36-109 limits assumed): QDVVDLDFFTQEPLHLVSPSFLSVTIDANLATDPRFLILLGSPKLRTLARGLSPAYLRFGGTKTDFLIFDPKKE

[9] = SPR, HBS-EP buffer containing 0.3 M NaCl, 25° C.; read-out: Kd FGF-2

SMILES | Kd [3, 9] [nM] | HSV-2 IC50 [6] [µg/mL] | RSV IC50 [7] [µg/mL] | Kd [1] [nM] | Kd [2] [nM] | APTT [4] [s] | Heptest [5] [s] | Selective index CC50/IC50 HSV-2 [6] | Selective index CC50/IC50 RSV [7] | Ki [8] [nM] | Kd ([3]; read-out: Kd FGF-2; SPR, HBS-EP buffer containing 0.3 M NaCl, 25° C.) [nM] | IC50 ([6]; Human alphaherpesvirus 2, read-out: HSV-2 IC50) [µg/mL] | IC50 ([7]; human respiratory syncytial virus, read-out: RSV IC50) [µg/mL]
CCCCCCCCCCCCOC1OC(COS(=O)(=O)O)C(OS(=O)(=O)O)C(OS(=O)(=O)O)C1OC1OC(COS(=O)(=O)O)C(OS(=O)(=O)O)C(OC2OC(COS(=O)(=O)O)C(OS(=O)(=O)O)C(OC3OC(COS(=O)(=O)O)C(OS(=O)(=O)O)C(OC4OC(COS(=O)(=O)O)C(OS(=O)(=O)O)C(OS(=O)(=O)O)C4OS(=O)(=O)O)C3OS(=O)(=O)O)C2OS(=O)(=O)O)C1OS(=O)(=O)O [Compound 4, Dodecyl 2,3,4,6-tetra-O-sodium sulfonato-α-D-mannopyranosyl-(1→3)-2,4,6-tri-O-sodium sulfonato-α-D-mannopyranosyl-(1→3)-2,4,6-tri-O-sodium sulfonato-α-D-mannopyranosyl-(1→3)-2,4,6-tri-O-sodium sulfonato-α-D-mannopyranosyl-(1→2)-3,4,6-tri-O-sodium sulfonato-α-D-mannopyranoside] | 480 ± 70 | – | – | 12 ± 3 | 6 ± 3 | 125.9 | 64.2 | > 444 | > 87 | 4.2 ± 0.5 | – | – | –
CC(C)CCCC(C)C1CCC2C3CCC4CC(OC5OC(COS(=O)(=O)O)C(OS(=O)(=O)O)C(OS(=O)(=O)O)C5OC5OC(COS(=O)(=O)O)C(OS(=O)(=O)O)C(OC6OC(COS(=O)(=O)O)C(OS(=O)(=O)O)C(OC7OC(COS(=O)(=O)O)C(OS(=O)(=O)O)C(OS(=O)(=O)O)C7OS(=O)(=O)O)C6OS(=O)(=O)O)C5OS(=O)(=O)O)CCC4(C)C3CCC12C [Compound 20, 3β-Cholestanyl 2,3,4,6-tetra-O-sodium sulfonato-α-D-mannopyranosyl-(1→3)-2,4,6-tri-O-sodium sulfonato-α-D-mannopyranosyl-(1→3)-2,4,6-tri-O-sodium sulfonato-α-D-mannopyranosyl-(1→2)-3,4,6-tri-O-sodium sulfonato-α-D-mannopyranoside] | – | – | – | 22 ± 6 | 0.6 ± 0.5 | 94.0 | 28.0 | 100 | 66 | 5.8 ± 1.5 | 160 ± 40 | – | –
CC(C)CCC[C@@H](C)[C@H]1CC[C@H]2[C@@H]3CC[C@H]4C[C@@H](O[C@H]5O[C@H](COS(=O)(=O)O)[C@@H](OS(=O)(=O)O)[C@H](OS(=O)(=O)O)[C@@H]5O[C@H]5O[C@H](COS(=O)(=O)O)[C@@H](OS(=O)(=O)O)[C@H](OS(=O)(=O)O)[C@@H]5OS(=O)(=O)O)CC[C@]4(C)[C@H]3CC[C@]12C [Compound 33, 3β-Cholestanyl 2,3,4,6-tetra-O-sodium sulfonato-α-D-mannopyranosyl-(1→2)-3,4,6-tri-O-sodium sulfonato-α-D-mannopyranoside] | 1570 ± 150 | – | – | 1300 ± 300 | 270 ± 30 | 40.6 | 25.5 | – | – | 22.3 ± 1.6 | – | 0.7 | 1.8
CC(C)CCC[C@@H](C)[C@H]1CC[C@H]2[C@@H]3CCC4CC(OCc5cn([C@@H]6O[C@H](COS(=O)(=O)[O-])[C@@H](O[C@H]7O[C@H](COS(=O)(=O)[O-])[C@@H](O[C@H]8O[C@H](COS(=O)(=O)[O-])[C@@H](OS(=O)(=O)[O-])[C@H](OS(=O)(=O)[O-])[C@H]8OS(=O)(=O)[O-])[C@H](OS(=O)(=O)[O-])[C@H]7OS(=O)(=O)[O-])[C@H](OS(=O)(=O)[O-])[C@H]6OS(=O)(=O)[O-])nn5)CC[C@]4(C)[C@H]3CC[C@]12C.[Na+].[Na+].[Na+].[Na+].[Na+].[Na+].[Na+].[Na+].[Na+].[Na+] (stereo partly drawn) [Compound 70, 4-(Cholestan-3-yl-oxymethyl)[1,2,3]triazol-1-yl 2,3,4,6-tetra-O-sodium sulfonato-α-D-glucopyranosyl-(1→4)-2,3,6-tri-O-sodium sulfonato-α-D-glucopyranosyl-(1→4)-1-deoxy-2,3,6-tri-O-sodium sulfonato-β-D-glucopyranoside] | 390 ± 90 | 0.15 | 0.23 | 95 ± 8 | 9.7 ± 0.8 | 104.0 | 45.5 | – | – | 3.7 ± 0.8 | – | – | –

Continued, in another order:

Kd [3, 9] [nM] | HSV-2 IC50 [6] [µg/mL] | RSV IC50 [7] [µg/mL] | SMILES | Kd [1] [nM] | Kd [2] [nM] | APTT [4] [s] | Heptest [5] [s] | Selective index CC50/IC50 HSV-2 [6] | Selective index CC50/IC50 RSV [7] | Ki [8] [nM] | Kd ([3]; read-out: Kd FGF-2; SPR, HBS-EP buffer containing 0.3 M NaCl, 25° C.) [nM] | IC50 ([6]; Human alphaherpesvirus 2, read-out: HSV-2 IC50) [µg/mL] | IC50 ([7]; human respiratory syncytial virus, read-out: RSV IC50) [µg/mL]
490 ± 40 | 0.3 | 0.45 | CC(C)CCC[C@@H](C)[C@H]1CC[C@H]2[C@@H]3CCC4CC(O[C@H]5O[C@H](COS(=O)(=O)[O-])[C@@H](OS(=O)(=O)[O-])[C@H](O[C@H]6O[C@H](COS(=O)(=O)[O-])[C@@H](OS(=O)(=O)[O-])[C@H](O[C@H]7O[C@H](COS(=O)(=O)[O-])[C@@H](OS(=O)(=O)[O-])[C@H](OS(=O)(=O)[O-])[C@@H]7OS(=O)(=O)[O-])[C@@H]6OS(=O)(=O)[O-])[C@@H]5OS(=O)(=O)[O-])CC[C@]4(C)[C@H]3CC[C@]12C.[Na+].[Na+].[Na+].[Na+].[Na+].[Na+].[Na+].[Na+].[Na+].[Na+] (stereo partly drawn) [Compound 56, 3′-Cholestanyl 2,3,4,6-tetra-O-sodium sulfonato-α-D-mannopyranosyl-(1→3)-2,4,6-tri-O-sodium sulfonato-α-D-mannopyranosyl-(1→3)-3,4,6-tri-O-sodium sulfonato-α-D-mannopyranoside] | 90 ± 30 | 16 ± 7 | 58.5 | 24.2 | – | – | 10.5 ± 1.7 | – | – | –
474 ± 1.4 | 0.24 | 0.39 | CC(C)CCC[C@@H](C)[C@H]1CC[C@H]2[C@@H]3CCC4C[C@@H](OCc5cn(CCCO[C@H]6O[C@H](COS(=O)(=O)[O-])[C@@H](OS(=O)(=O)[O-])[C@H](O[C@H]7O[C@H](COS(=O)(=O)[O-])[C@@H](OS(=O)(=O)[O-])[C@H](O[C@H]8O[C@H](COS(=O)(=O)[O-])[C@@H](OS(=O)(=O)[O-])[C@H](OS(=O)(=O)[O-])[C@@H]8OS(=O)(=O)[O-])[C@@H]7OS(=O)(=O)[O-])[C@@H]6OS(=O)(=O)[O-])nn5)CC[C@]4(C)[C@H]3CC[C@]12C.[Na+].[Na+].[Na+].[Na+].[Na+].[Na+].[Na+].[Na+].[Na+].[Na+] (stereo partly drawn) [Compound 60, 3-{4-(Cholestan-3β-yl-oxymethyl)-[1,2,3]triazol-1-yl}propyl 2,3,4,6-tetra-O-sodium sulfonato-α-D-mannopyranosyl-(1→3)-2,4,6-tri-O-sodium sulfonato-α-D-mannopyranosyl-(1→3)-3,4,6-tri-O-sodium sulfonato-α-D-mannopyranoside] | 260 ± 130 | 14.3 ± 3 | 71.4 | 26.4 | – | – | 8.4 ± 2.6 | – | – | –
